Measurements reported in PMC9551036, “A selective and orally bioavailable VHL-recruiting PROTAC achieves SMARCA2 degradation in vivo” (Nature Communications, 2022).
Where “and” joins values, the source holds several entries; their conditions need not be identical. Equal values may be shown once. Entries after “also recorded” stand apart in the source; their conditions may differ.

Target: SMARCA2 (Homo sapiens, UniProt P51531)
Assay: SMARCA2 IHC in A549 xenograft tumours
Assay type: in vivo, mouse
Set-up: from tissue; host or cells: subcutaneous NCI-H1568 or A549 xenograft tumours in BomTac:NMRI-Foxn1nu mice
Description: To establish subcutaneous tumours, mice were injected with 5 × 10^6 NCI-H1568 in PBS with 5% FCS or with 1 × 10^7 A549 cells in PBS with 5% FCS. Tumour diameters were measured with a caliper three times a week. The volume of each tumour (in mm^3) was calculated according to the formula [tumour volume = length × diameter^2 × π/6]. To monitor side effects of treatment, mice were inspected daily for abnormalities and body weight was determined daily after the start of treatment. Animals were sacrificed when the tumours reached a size of 1500 mm^3. Mice were randomised into treatment groups when the average tumour size reached ~210–220 mm^3. Group sizes were calculated individually for each tumour model based on tumour growth during model establishment experiments. A power analysis was performed using a sample size calculator (https://www.stat.ubc.ca/~rollin/stats/ssize/n2.html). For both models used in the study, 10 mice per group were used for each experiment. All administrations were dosed with 10 ml/kg (s.c. and oral). Control mice were dosed subcutaneously with 10% HP-β-CD in 50% Ringer solution and orally with 15% HP-β-CD, that means the control mouse treatment was corresponding to the solvent of the compounds. Compound 6 was dosed subcutaneously either in a d1-4 q3d, d6-8 q2d, d11-13 q2d treatment (Treatment 1) or a q3 or 4d treatment (Treatment 2).
Xenograft samples were fixed in 10% formaldehyde for 24 h and later moved to ethanol and embedded in paraffin. 2 µm-thick sections were cut using a microtome, then placed on glass slides ([…], silan printer slides PR-S:001), and subsequently dewaxed. […] All slides were reviewed and evaluated for quality by a board-certified MD specialist in Anatomic Pathology (PC). […] A positivity threshold for DAB OD was determined by normalisation with respect to the DAB OD as calculated from bona fide negative tissue (e.g. murine stroma as background). The average, background-normalised DAB OD of tumour cell nuclei was used to quantitate SMARCA2 expression in each xenograft sample.

Chain of SMARCA2 (P51531 whole entry): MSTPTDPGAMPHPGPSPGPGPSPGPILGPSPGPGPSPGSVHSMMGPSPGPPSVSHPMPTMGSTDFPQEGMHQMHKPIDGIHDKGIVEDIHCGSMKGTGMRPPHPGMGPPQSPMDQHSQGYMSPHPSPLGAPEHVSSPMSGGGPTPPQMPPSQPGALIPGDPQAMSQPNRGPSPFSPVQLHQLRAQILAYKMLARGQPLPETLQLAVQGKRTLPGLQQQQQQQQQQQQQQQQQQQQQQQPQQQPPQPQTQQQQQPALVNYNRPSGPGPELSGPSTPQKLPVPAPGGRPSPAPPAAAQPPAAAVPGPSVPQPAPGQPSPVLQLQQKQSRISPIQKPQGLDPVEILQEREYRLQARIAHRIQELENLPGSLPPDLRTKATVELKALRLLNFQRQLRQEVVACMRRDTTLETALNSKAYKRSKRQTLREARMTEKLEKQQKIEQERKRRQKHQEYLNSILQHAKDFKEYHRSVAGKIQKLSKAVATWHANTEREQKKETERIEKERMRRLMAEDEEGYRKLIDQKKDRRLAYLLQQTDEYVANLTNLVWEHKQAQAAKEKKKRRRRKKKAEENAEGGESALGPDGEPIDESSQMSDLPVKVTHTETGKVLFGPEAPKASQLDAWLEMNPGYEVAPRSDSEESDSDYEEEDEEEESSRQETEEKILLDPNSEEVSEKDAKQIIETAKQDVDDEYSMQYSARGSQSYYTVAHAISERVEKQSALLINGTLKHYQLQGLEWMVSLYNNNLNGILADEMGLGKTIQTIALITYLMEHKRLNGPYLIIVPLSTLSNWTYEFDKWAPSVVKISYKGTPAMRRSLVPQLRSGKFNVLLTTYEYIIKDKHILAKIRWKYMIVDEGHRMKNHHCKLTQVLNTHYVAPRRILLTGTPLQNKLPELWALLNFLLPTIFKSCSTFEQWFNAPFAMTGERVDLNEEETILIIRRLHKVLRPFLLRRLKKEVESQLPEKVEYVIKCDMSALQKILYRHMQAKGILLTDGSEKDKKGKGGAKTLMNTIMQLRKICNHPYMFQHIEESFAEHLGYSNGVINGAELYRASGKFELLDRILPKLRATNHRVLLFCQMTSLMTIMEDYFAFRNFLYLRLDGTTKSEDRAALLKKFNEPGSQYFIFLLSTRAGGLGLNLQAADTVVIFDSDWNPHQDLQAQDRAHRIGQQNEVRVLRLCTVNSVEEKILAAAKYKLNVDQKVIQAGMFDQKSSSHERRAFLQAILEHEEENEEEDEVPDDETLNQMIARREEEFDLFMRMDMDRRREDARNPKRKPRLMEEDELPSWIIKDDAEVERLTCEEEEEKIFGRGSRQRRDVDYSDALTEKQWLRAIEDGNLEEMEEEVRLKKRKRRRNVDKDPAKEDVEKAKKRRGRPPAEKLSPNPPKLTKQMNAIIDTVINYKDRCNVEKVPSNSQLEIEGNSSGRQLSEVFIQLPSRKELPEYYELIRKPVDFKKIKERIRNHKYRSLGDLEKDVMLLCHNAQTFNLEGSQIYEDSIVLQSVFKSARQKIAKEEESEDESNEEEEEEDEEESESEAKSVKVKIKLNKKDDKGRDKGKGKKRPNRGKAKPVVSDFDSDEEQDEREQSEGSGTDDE

Cc1ncsc1-c1ccc(C(CCC(C)CCN2CCC(c3ccc4c(c3)n(C3CCCC3)c3nc(=O)c5c(Br)cccc5n43)CC2)NC(=O)C2CC(O)CN2C(=O)C(NC(=O)C2(F)CC2)C(C)(C)C)cc1 (stereo not drawn) [ACBI2]
SMARCA2 staining in tumours at the end of the efficacy study (A549 xenograft, 80 mg/kg p.o. once daily, 80 mg/kg): reduced to background levels; also recorded: decreased to background levels | SMARCA2 (OD, normalised) (Fig4h, 80 mg/kg po qd, background OD 0.05910 subtracted): 0.00000 | Avg Stain 1 Nuclear OD (Fig4h, 80 mg/kg po qd, per animal): 0.04104 and 0.05262 and 0.08316 and 0.0589 and 0.03791 and 0.04411
